Reference: US20210015725A1, “SKINCARE PRODUCT AND METHOD OF PREPARATION THEREOF” (FE:I BEAUTY TECH, INC., priority 2012, published 2021)

How the values were obtained:
[1] = calcium carbonate 0-10%, various time periods of incubation
Method: Precipitation of iron by calcium carbonate: Iron was added to extracellular matrix, followed by the addition of different concentrations of calcium carbonate (0-10%) (FIG. 5). After various time periods of incubation, a small part of the mixture was filtered using a membrane with a molecular weight cutoff of 5,000 Dalton as previously described in FIG. 4. Levels of iron in the filtrates were determined by Ferrozine.

Ferritin = Ferritin (Homo sapiens, UniProt P02792+P02794); experiment: Reduction of iron from ferritin by vitamin C; format: biochemical
Method: Reduction of iron from ferritin by vitamin C: Ferritin at a concentration of 1 mg/ml was incubated with various concentrations of vitamin C (0-500 μM). […] Levels of iron in the filtrates were measured by Ferrozine (Sigma, St. Louis, Mo.), which forms a stable magenta-colored complex (Fe^2+-ferrozine) with a maximum absorption at 560 nm. In brief, 30 μl sample was added to 135 μl buffer. After 10 min incubation at 37° C., the absorbance was measured at 560 nm using a UV—visible microplate reader (SpectraMax Plus, Molecular Devices, Sunnyvale, Calif.). Then, 5 μl iron chromogenic agent (ferrozine) was added and after 15 min incubation, the absorbance was measured again at 560 nm. The difference in absorbance was used to calculate iron concentration after comparing to the iron standard curve. To determine whether iron is completely released from ferritin, atomic absorption (AA) was used to measure total iron in ferritin.

Ferritin, sequence (P02794 whole entry, species assumed): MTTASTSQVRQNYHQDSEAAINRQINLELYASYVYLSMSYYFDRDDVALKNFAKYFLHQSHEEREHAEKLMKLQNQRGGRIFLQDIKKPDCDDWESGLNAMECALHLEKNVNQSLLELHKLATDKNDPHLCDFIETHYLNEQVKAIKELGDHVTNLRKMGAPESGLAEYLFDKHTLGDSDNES
Ferritin, sequence (P02792 whole entry, species assumed): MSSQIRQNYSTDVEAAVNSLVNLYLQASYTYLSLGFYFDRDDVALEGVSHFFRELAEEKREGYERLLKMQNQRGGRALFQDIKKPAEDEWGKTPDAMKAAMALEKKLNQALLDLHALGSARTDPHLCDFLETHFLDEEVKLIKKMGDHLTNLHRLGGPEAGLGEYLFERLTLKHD

completeness of iron release from ferritin (atomic absorption, total iron) (Ferritin; after vitamin C reduction) | Structure (SMILES) | precipitation of iron (iron in filtrates by Ferrozine) [1] | release of iron from ferritin (iron in filtrates measured by Ferrozine) (Ferritin; ferritin 1 mg/ml, vitamin C 0-500 μM, one hour incubation)
 | O=C([O-])[O-].[Ca+2] [calcium carbonate] | can effectively precipitate iron | 
all iron in ferritin is released | O=C1O[C@H]([C@@H](O)CO)C(O)=C1O [vitamin C] |  | effective in releasing iron from ferritin
